# Values quoted from earlier work as cited in US20050176650A1, “Stable parenteral formulation of levomepromazine and a method for stabilizing said formulation” (Xanodyne Pharmacal, Inc., priority 2004, published 2005).
# What was measured:
# [1] = rats; prior art description
# [2] = prior art description
# traumatic shock = conditions: rats; prior art description
compound,measurement,setting,value
"COc1ccc2c(c1)N(C[C@H](C)CN(C)C)c1ccccc1S2 [Levomepromazine, (−)-(2R)-3-(2-methoxy-10H-phenothiazin-10-yl)-N,N,2-trimethylpropan-1-amine]",local anesthesia following parasciatic injections,[1],produce deep local anesthesia
same,"hypothermic action, potency relative to chlorpromazine",[2],three times more potent than that of chlorpromazine
same,protection against traumatic shock,traumatic shock,readily protect against traumatic shock
